Columns and labels:
JAK1 = biological target: T1, JAK1 (Homo sapiens, UniProt P23458); experiment: In vitro activity test of JAK1 kinase (Caliper EZ Reader conversion assay); type: biochemical; details: enzyme activity, 10 concentrations from 1000 nM, 3-fold dilution
T1 construct: purchased Carna 08-114
Description: (§1) In Vitro Activity Test of JAK1 and JAK2 Kinases
(§2) • Centrifuge (manufacturer: Eppendorf, model: 5430) • ELISA Instrument (Manufacturer: Perkin Elmer, Model: Caliper EZ Reader 1I) • Echo 550 (Manufacturer: Labcyte, Model: Echo 550)
(§3) (1) Prepare 1 Kinase buffer.
(§4) (2) Compound concentration gradient preparation: The test compound was tested at 1000 nM, 3-fold dilution, 10 concentrations, two-well assay, and configured to a 100-fold final concentration in a 384-well plate. 250 nl of the test compound was then transferred to the 384 reaction plate using Echo550. 250 nl of 100% DMSO was added to each of the negative and positive control wells.
(§5) (3) Prepare 2.5 times the final concentration of kinase solution with 1×Kinase buffer.
(§6) (4) Add 10 μL of 2.5 times the final concentration of kinase solution to the compound wells and 10 μL of 1×Kinase buffer to the negative control wells.
(§7) (5) Centrifuge at 1000 rpm for 30 seconds, mix well with shaking, and incubate at room temperature for 10 minutes.
(§8) (6) Prepare a 25/15-fold final concentration of mixture of ATP and Kinase substrate with 1×Kinase buffer.
(§9) (7) Add 15 μL of a mixture of 25/15 times the final concentration of ATP and substrate to start the reaction.
(§10) (8) Centrifuge the 384-well plate at 1000 rpm for 30 seconds, mix well with shaking, and incubate at room temperature for an appropriate amount of time.
(§11) (9) Stop the kinase reaction by adding 30 μL of termination solution, centrifuge at 1000 rpm for 30 seconds, and mix well with shaking.
(§12) (10) Read the conversion rate with Caliper EZ Reader.
(§13) where: Conversion %_sample is the conversion rate reading of the sample-, Conversion %_min: the average value of the negative control wells, representing the conversion reading of the wells without enzyme activity: Conversion %-max: the average value of the positive control wells, representing the conversion reading of the wells without compound inhibition.
(§14) The log value of concentration was used as the X-axis and the percentage inhibition as the Y-axis, and the function of the analytical software GraphPad Prism 5; log(inhibitor) vs. response -Variable slope, was used to lit dose-effect curves to obtain the IC50) values of each compound on enzyme activity.
(§15) The formula is Y=Bottom+(Top-Bottom)/(1+10^((LogIC50-X)*HillSlope))
(§16) The 1C50 data are specified in Table 1.

JAK2 = biological target: T2, JAK2 (Homo sapiens, UniProt O60674); experiment: In vitro activity test of JAK2 kinase (Caliper EZ Reader conversion assay); type: biochemical; details: enzyme activity, 10 concentrations from 1000 nM, 3-fold dilution
T2 construct: purchased Carna 08-045
T2 sequence (O60674 whole entry, species assumed): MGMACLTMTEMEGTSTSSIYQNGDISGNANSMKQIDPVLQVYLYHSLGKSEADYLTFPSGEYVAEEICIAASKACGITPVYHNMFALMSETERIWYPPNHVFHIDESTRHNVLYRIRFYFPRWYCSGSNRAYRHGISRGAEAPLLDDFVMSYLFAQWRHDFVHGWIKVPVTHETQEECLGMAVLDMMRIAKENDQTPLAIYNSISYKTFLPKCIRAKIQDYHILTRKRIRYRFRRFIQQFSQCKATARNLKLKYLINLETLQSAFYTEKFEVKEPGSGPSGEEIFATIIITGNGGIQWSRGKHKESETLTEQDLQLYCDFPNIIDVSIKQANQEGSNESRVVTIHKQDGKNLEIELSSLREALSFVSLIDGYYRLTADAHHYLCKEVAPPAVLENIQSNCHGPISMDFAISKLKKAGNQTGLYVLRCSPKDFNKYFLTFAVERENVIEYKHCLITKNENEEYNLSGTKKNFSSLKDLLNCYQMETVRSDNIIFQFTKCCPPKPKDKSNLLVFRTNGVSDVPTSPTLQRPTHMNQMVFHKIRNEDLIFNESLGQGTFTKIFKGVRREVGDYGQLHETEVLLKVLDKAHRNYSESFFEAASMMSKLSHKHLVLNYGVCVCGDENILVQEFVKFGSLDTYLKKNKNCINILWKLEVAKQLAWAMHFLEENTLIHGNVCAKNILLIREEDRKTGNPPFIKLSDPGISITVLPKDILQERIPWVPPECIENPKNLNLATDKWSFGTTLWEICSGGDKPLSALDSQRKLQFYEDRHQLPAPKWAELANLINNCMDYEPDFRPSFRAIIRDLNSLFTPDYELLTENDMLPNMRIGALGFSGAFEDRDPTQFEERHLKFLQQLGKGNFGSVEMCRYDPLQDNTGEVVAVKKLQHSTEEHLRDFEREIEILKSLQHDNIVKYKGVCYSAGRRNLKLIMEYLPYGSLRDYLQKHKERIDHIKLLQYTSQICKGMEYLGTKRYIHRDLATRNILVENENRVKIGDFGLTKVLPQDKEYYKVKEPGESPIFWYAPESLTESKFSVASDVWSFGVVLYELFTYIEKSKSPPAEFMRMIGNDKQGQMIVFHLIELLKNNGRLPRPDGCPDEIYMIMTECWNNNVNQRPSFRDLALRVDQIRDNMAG
Description: as §1, §2, §3, §4, §5, §6, §7, §8, §9, §10, §11, §12, §13, §14, §15, §16

T1 sequence (P23458 whole entry, species assumed): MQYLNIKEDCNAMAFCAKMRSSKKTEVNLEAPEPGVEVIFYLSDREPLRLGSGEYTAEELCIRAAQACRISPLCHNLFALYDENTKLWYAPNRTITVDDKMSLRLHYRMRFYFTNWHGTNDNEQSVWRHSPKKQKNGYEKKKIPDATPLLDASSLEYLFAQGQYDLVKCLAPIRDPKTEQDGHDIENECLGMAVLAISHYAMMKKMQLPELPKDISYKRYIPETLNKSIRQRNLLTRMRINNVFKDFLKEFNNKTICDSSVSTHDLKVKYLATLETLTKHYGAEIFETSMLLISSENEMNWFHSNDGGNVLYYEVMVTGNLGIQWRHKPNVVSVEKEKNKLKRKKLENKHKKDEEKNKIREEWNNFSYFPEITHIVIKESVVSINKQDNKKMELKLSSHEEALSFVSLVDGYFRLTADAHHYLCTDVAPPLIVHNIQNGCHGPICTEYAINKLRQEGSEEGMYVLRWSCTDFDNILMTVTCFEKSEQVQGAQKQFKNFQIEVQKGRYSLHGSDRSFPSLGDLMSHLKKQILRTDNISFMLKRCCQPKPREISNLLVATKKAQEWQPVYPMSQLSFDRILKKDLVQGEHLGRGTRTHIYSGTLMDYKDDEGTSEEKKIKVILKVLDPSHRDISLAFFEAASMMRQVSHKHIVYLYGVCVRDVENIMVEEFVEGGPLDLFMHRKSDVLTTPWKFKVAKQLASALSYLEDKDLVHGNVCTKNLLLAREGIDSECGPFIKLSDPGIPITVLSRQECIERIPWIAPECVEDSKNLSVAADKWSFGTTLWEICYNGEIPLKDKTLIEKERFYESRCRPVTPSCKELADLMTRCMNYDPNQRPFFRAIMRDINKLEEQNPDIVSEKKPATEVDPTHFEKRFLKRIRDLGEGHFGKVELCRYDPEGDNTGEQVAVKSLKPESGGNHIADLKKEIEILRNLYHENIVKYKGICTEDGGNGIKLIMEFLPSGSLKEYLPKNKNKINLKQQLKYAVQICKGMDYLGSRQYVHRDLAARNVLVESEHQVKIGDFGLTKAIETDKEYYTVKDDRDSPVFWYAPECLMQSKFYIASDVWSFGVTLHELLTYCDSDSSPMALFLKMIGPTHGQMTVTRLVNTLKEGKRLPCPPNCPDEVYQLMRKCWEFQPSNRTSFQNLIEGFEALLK

SMILES | IC50 (JAK1) [nM] | IC50 (JAK2) [nM]
C[C@@H](O)c1nc2cnc3[nH]ccc3c2n1C1CCN(C(=O)OC(C)(C)C)C1 (stereo partly drawn) [LXS01, tert-butyl 3-(2-((R)-1-hydroxyethyl)imidazo[4,5-d]pyrrolo[2,3-b]pyridin-1(6H)-yl)pyrrolidine-1-carboxylate] | 100 to 1000 | 100 to 1000
C[C@@H](O)c1nc2cnc3[nH]ccc3c2n1C1CCN(C(=O)c2ccc(C#N)cc2)C1 (stereo partly drawn) [LXS02, 4-(3-(2-((R)-1-hydroxyethyl)imidazo[4,5-d]pyrrolo[2,3-b]pyridin-1(6H)-yl)pyrrolidin-1-carbonyl)benzonitrile] | 100 to 1000 | 100 to 1000
C[C@@H](O)c1nc2cnc3[nH]ccc3c2n1C1CCN(C(=O)c2ccc(F)cc2)C1 (stereo partly drawn) [LXS03, (4-Fluorophenyl)(3-(2-((R)-1-Hydroxyethyl)imidazo[4,5-d]pyrrolo[2,3-b]pyridin-1(6H)-yl)pyrrolidin-1-yl)methanone] | 100 to 1000 | 100 to 1000
CCS(=O)(=O)N1CCC(n2c([C@@H](C)O)nc3cnc4[nH]ccc4c32)C1 (stereo partly drawn) [LXS04, (1R)-1-(1-(1-(ethylsulfonyl)pyrrolidin-3-yl)-1,6-dihydroimidazo[4,5-d]pyrrolo[2,3-b]pyridin-2-yl)ethan-1-ol] | 10 to 100 | 100 to 1000
CCCS(=O)(=O)N1CCC(n2c([C@@H](C)O)nc3cnc4[nH]ccc4c32)C1 (stereo partly drawn) [LXS05, (1R)-1-(1-(1-(propylsulfonyl)pyrrolidin-3-yl)-1,6-dihydroimidazo[4,5-d]pyrrolo[2,3-b]pyridin-2-yl)ethan-1-ol] | 10 to 100 | 100 to 1000
CCCCS(=O)(=O)N1CCC(n2c([C@@H](C)O)nc3cnc4[nH]ccc4c32)C1 (stereo partly drawn) [LXS06, (1R)-1-(1-(1-(butylsulfonyl)pyrrolidin-3-yl)-1,6-dihydroimidazo[4,5-d]pyrrolo[2,3-b]pyridin-2-yl)ethan-1-ol] | 10 to 100 | 100 to 1000
C[C@@H](O)c1nc2cnc3[nH]ccc3c2n1C1CCN(S(=O)(=O)c2ccccc2F)C1 (stereo partly drawn) [LXS07, (1R)-1-(1-(1-((2-fluorophenyl)sulfonyl)pyrrolidin-3-yl)-1,6-dihydroimidazo[4,5-d]pyrrolo[2,3-b]pyridin-2-yl)ethan-1-ol] | 100 to 1000 | 100 to 1000
Cc1ccc(S(=O)(=O)N2CCC(n3c([C@@H](C)O)nc4cnc5[nH]ccc5c43)C2)cc1 (stereo partly drawn) [LXS08, (1R)-1-(1-(1-tosylpyrrolidin-3-yl)-1,6-dihydroimidazo[4,5-d]pyrrolo[2,3-b]pyridin-2-yl)ethan-1-ol] | 100 to 1000 | 100 to 1000
C[C@@H](O)c1nc2cnc3[nH]ccc3c2n1C1CCN(S(=O)(=O)c2ccc(-c3ccccc3)cc2)C1 (stereo partly drawn) [LXS09, (1R)-1-(1-(1-([1,1′-biphenyl]-4-ylsulfonyl)pyrrolidin-3-yl)-1,6-dihydroimidazo[4,5-d]pyrrolo[2,3-b]pyridin-2-yl)ethan-1-ol] | 100 to 1000 | > 1000
C[C@@H](O)c1nc2cnc3[nH]ccc3c2n1C1CCN(S(=O)(=O)c2ccc3ccccc3c2)C1 (stereo partly drawn) [LXS10, (1R)-1-(1-(1-(naphthalen-2-ylsulfonyl)pyrrolidin-3-yl)-1,6-dihydroimidazo[4,5-d]pyrrolo[2,3-b]pyridin-2-yl)ethan-1-ol] | 100 to 1000 | > 1000
C[C@@H](O)c1nc2cnc3[nH]ccc3c2n1C1CCN(S(=O)(=O)c2ccc(OC(F)(F)F)cc2)C1 (stereo partly drawn) [LXS11, (1R)-1-(1-(1-((4-(trifluoromethoxy)phenyl)sulfonyl)pyrrolidin-3-yl)-1,6-dihydroimidazo[4,5-d]pyrrolo[2,3-b]pyridin-2-yl)ethan-1-ol] | 10 to 100 | 100 to 1000
C[C@@H](O)c1nc2cnc3[nH]ccc3c2n1C1CCN(S(=O)(=O)c2cccs2)C1 (stereo partly drawn) [LXS12, (1R)-1-(1-(1-(thiophen-2-ylsulfonyl)pyrrolidin-3-yl)-1,6-dihydroimidazo[4,5-d]pyrrolo[2,3-b]pyridin-2-yl)ethan-1-ol] | 10 to 100 | 100 to 1000
CCS(=O)(=O)N1CC(CC#N)(n2cc(-n3c(-c4ccc(CO)o4)nc4cnc5[nH]ccc5c43)cn2)C1 [LXS13, 2-(1-(ethylsulfonyl)-3-(4-(2-(5-(hydroxymethyl)furan-2-yl)imidazo[4,5-d]pyrrolo[2,3-b]pyridin-1(6H)-yl)-1H-pyrazol-1-yl)azetidin-3-yl)acetonitrile] | 100 to 1000 | 10 to 100
CCCCS(=O)(=O)N1CC(CC#N)(n2cc(-n3c(-c4ccc(CO)o4)nc4cnc5[nH]ccc5c43)cn2)C1 [LXS15, 2-(1-(butylsulfonyl)-3-(4-(2-(5-(hydroxymethyl)furan-2-yl)imidazo[4,5-d]pyrrolo[2,3-b]pyridin-1(6H)-yl)-1H-pyrazol-1-yl)azetidin-3-yl)acetonitrile] | 100 to 1000 | 10 to 100

Next, values leading:

IC50 (JAK1) [nM] | IC50 (JAK2) [nM] | SMILES
10 to 100 | 10 to 100 | CCCS(=O)(=O)N1CCC(n2c(-c3ccc(CO)o3)nc3cnc4[nH]ccc4c32)C1 (stereo not drawn) [LXS16]
10 to 100 | 10 to 100 | O=C(C1CC1)N1CCC(n2c(-c3ccc(CO)o3)nc3cnc4[nH]ccc4c32)C1 (stereo not drawn) [LXS17, Cyclopropyl(3-(2-(5-(hydroxymethyl)furan-2-yl)imidazo[4,5-d]pyrrolo[2,3-b]pyridin-1(6H)-yl)pyrrolidin-1-yl) methanone]
10 to 100 | 10 to 100 | CCCS(=O)(=O)N1CCC(n2c(-c3ncc[nH]3)nc3cnc4[nH]ccc4c32)C1 (stereo not drawn) [LXS18, 2-(1H-imidazol-2-yl)-1-(1-(propylsulfonyl)pyrrolidin-3-yl)-1,6-dihydroimidazo[4,5-d]pyrrolo[2,3-b]pyridine]
10 to 100 | 10 to 100 | O=S(=O)(N1CCC(n2c(-c3ncc[nH]3)nc3cnc4[nH]ccc4c32)C1)C(F)(F)F (stereo not drawn) [LXS19, 2-(1H-imidazol-2-yl)-1-(1-((trifluoromethyl)sulfonyl)pyrrolidin-3-yl)-1,6-dihydroimidazo[4,5-d]pyrrolo[2,3-b]pyridine]
100 to 1000 | 100 to 1000 | CCCS(=O)(=O)N1CCC(n2c(-c3ccccc3O)nc3cnc4[nH]ccc4c32)C1 (stereo not drawn) [LXS30, 2-(1-(1-(propylsulfonyl)pyrrolidin-3-yl)-1,6-dihydroimidazo[4,5-d]pyrrolo[2,3-b]pyridin-2-yl)phenol]
100 to 1000 | 100 to 1000 | CCCS(=O)(=O)N1CCC(n2c(-c3ccc(O)cc3O)nc3cnc4[nH]ccc4c32)C1 (stereo not drawn) [LXS31, 4-(1-(1-(Propylsulfonyl)pyrrolidin-3-yl)-1,6-dihydroimidazo[4,5-d]pyrrolo[2,3-b]pyridin-2-yl)benzene-1,3-diol]
10 to 100 | < 10 | CCCS(=O)(=O)N1CCC(n2c(-c3cccc(O)c3)nc3cnc4[nH]ccc4c32)C1 (stereo not drawn) [LXS32, 3-(1-(1-(propylsulfonyl)pyrrolidin-3-yl)-1,6-dihydroimidazo[4,5-d]pyrrolo[2,3-b]pyridin-2-yl)phenol]
10 to 100 | 10 to 100 | C=CC(=O)N1CCC(n2c(-c3ccc(O)cc3O)nc3cnc4[nH]ccc4c32)C1 (stereo not drawn) [LXS33, 1-(3-(2-(2,4-Dihydroxyphenyl)imidazo[4,5-d]pyrrolo[2,3-b]pyridin-1(6H)-yl)pyrrolidin-1-yl)prop-2-en-1-one]
100 to 1000 | 100 to 1000 | O=C(NCC(F)(F)F)N1CCC(n2c(-c3cccc(O)c3)nc3cnc4[nH]ccc4c32)C1 (stereo not drawn) [LXS34, 3-(2-(3-Hydroxyphenyl)imidazo[4,5-d]pyrrolo[2,3-b]pyridin-1(6H)-yl)-N-(2,2,2-trifluoroethyl)pyrrolidine-1-carboxamide]
10 to 100 | 10 to 100 | O=S(=O)(C1CC1)N1CCC(n2c(-c3ccc(CO)o3)nc3cnc4[nH]ccc4c32)C1 (stereo not drawn) [LXS45, (5-(1-(1-(cyclopropylsulfonyl)pyrrolidin-3-yl)-1,6-dihydroimidazo[4,5-d]pyrrolo[2,3-b]pyridin-2-yl)furan-2-yl)methanol]
10 to 100 | < 10 | N#CCCn1cc(-n2c(-c3ccc(CO)o3)nc3cnc4[nH]ccc4c32)cn1 [LXS46, 3-(4-(2-(5-(Hydroxymethyl)furan-2-yl)imidazo[4,5-d]pyrrolo[2,3-b]pyridin-1(6H)-yl)-1H-pyrazol-1-yl)propanenitrile]
100 to 1000 | 100 to 1000 | CCCS(=O)(=O)N1CCC(n2c(-c3cccnc3N)nc3cnc4[nH]ccc4c32)C1 (stereo not drawn) [LXS47, 3-(1-(1-(propylsulfonyl)pyrrolidin-3-yl)-1,6-dihydroimidazo[4,5-d]pyrrolo[2,3-b]pyridin-2-yl)pyridin-2-amine]
10 to 100 | 100 to 1000 | C[C@@H](O)c1nc2cnc3[nH]ccc3c2n1C1CCN(CC#N)C1 (stereo partly drawn) [LXS48, 2-(3-(2-((R)-1-Hydroxyethyl)imidazo[4,5-d]pyrrolo[2,3-b]pyridin-1(6H)-yl)pyrrolidin-1-yl)acetonitrile]

Source: patent US20240383898A1, “PYRIDO RING COMPOUND, PREPARATION METHOD THEREFOR, INTERMEDIATE, COMPOSITION, AND APPLICATION” (YIYOU BIOTECH (SHANGHAI) CO., LTD, priority 2021, published 2024)
